Values of other authors as cited in US20220023301A1, “METHODS OF TREATING AUTOIMMUNE DISEASES WITH SMALL MOLECULE NF-kB INHIBITORS” (ImmuneTarget, Inc., priority 2020, published 2022).

System: cuprizone induced neuroinflammation mouse model

Question: For `CC(C)[C@]12O[C@H]1[C@@H]1O[C@]13[C@]1(O[C@H]1C[C@H]1C4=C(CC[C@@]13C)C(=O)OC4)[C@@H]2O` [Triptolide], which “motor function and motor coordination compared to control group” value (0.125 mg/kg administered intraperitoneally daily) is on record?
Answer: Its value is “improves motor function and motor coordination”.

Question: And the Bax/Bcl-2 ratio (0.125 mg/kg dose)?
Answer: Its Bax/Bcl-2 ratio is “reduce Bax/Bcl-2 ratio”.

Question: What about the behavioral deficits (0.125 mg/kg dose) of the same molecule?
Answer: The behavioral deficits was “improve behavioral deficits”.

Question: What about the “number of OLGs precursor cells (NG-2+/O4+)” value (0.125 mg/kg dose) of the same molecule?
Answer: Its value is “raise the number of OLGs precursor cells”.
